From patent US20240108634A1, “COMPOSITIONS AND METHODS FOR INHIBITING YAP” (The United States Government as represented by the …, priority 2021, published 2024)

Assays:
[1] = biological target: T1, YAP1 (residues 50-171) / TEAD1 (residues 194-411) association (Homo sapiens, UniProt P46937); assay: In vitro GST pull-down of His-tagged YAP1 with GST-TEAD1; assay type: binding; conditions: concentration-dependent
T1 construct: His; made in house
Protocol: FIGS. 1A-G show the identification of a YAP1-TEAD1 binding interface inhibitor. […] The Gal4 DBD was fused to residues 50-171 of human YAP1 and the Gal4 AD was fused to residues 194-411 of human TEAD1. These fusions were expressed in yeast containing reporters harboring Gal4 upstream activating sequences (UAS). […] Yeast expressing either p53-DBD and SV40 large T antigen-AD fusions or YAP1-DBD and TEAD1-AD fusions were plated on selective media. Compounds were pinned onto the plate surfaces by robotic transfer and subsequently examined for halo formation (indicated by red circles). […] Pull-down products were analyzed by SDS-PAGE and silver staining. […] Raw binding sensorgrams obtained at each concentration were fitted to a 1:1 binding model and Kon, Koff and KD were calculated by simultaneous non-linear regression analyses.
Results. […] To examine the mechanism by which NSC682769 inhibits YAP, the ability of full-length human YAP1 to bind to NSC682769 cross-linked affinity beads prepared using a photo-cross-linking procedure (Holmes B, et al. (2016) J Biol Chem 291: 14146-14159) was determined. Recombinant YAP was incubated with control, IRES-J007 (negative control), or NSC682769-coupled beads and binding analyzed by immunoblotting for YAP (FIG. 1F). […]

[2] = test system: LN229 xenografts; assay: Subcutaneous LN229 xenografts in SCID mice; assay type: in vivo
Source text: Protein levels were quantified by Western analyses (inset; representative immunoblots of YAP and actin levels from tumors from the indicated tumor treatment groups), and normalized to actin levels of harvested tumors from mice with the corresponding treatments as indicated and described in Materials and Methods. […] Scale bar, 20 μm. […] Data are expressed as the number of positive apoptotic bodies (brown, indicated by arrows) divided by high power field (hpf; 10-12 hpf/tumor). Values are means+S.D., *, P<0.05. Scale bar, 20 μm.
(§1) Animal studies. Xenografts of LN229 cells were performed in 4-6-week-old female C.B.-17-scid (Taconic) mice as previously described (Holmes B, et al. (2016) J Biol Chem 291: 14146-14159). Tumors were harvested at autopsy for immunoblot analysis. Sections of paraffin-embedded tumors on slides were processed for immunohistochemistry as previously described (Benavides-Serrato A, et al. (2017) PLoS One 12: e0176599). For GEMM studies, double transgenic GFAP-EGFRvIII; GFAP-Cre/Rictor^loxP/loxP mice as previously described were used (Bashir T, et al. (2012) PLoS One 7: e47741). Determinations of blood plasma and brain concentrations of NSC682769 following IV administration were performed in C57/BL6 mice.
NSC682769 inhibits GBM tumor growth in xenografted mice. To examine the effects of NSC682769 in vivo, the ability of the compound to inhibit the growth of LN229 xenografted tumors implanted subcutaneously in SCID mice was tested. Following implantation, when tumors reached ˜200 mm^3, mice were randomized into treatment groups receiving vehicle, 5 mg/kg/d and 20 mg/kg/d of NSC682769. […] The relative expression level of YAP was reduced in harvested tumors from NSC682769 treated animals (5 mg/kg; 20 mg/kg) as compared to vehicle treated animals consistent with the observed effects of the inhibitor in vitro (FIG. 5D; see also FIG. 3). Expression of the YAP-dependent genes CTGF and Cyr61 was reduced in inhibitor treated groups relative to vehicle (FIG. 5E).

[3] = test system: GFAP-EGFRvIII×GFAP-Cre+/Rictor glioma GEMM; assay: Survival of GFAP-EGFRvIII; GFAP-Cre/Rictor transgenic glioma mice; assay type: in vivo
Protocol: FIGS. 9A-B show GEMM survival and brain/blood plasma concentrations following treatment with NSC682769. […] C57/BL6 mice were administered NSC682769 IV and mean brain and plasma concentrations were determined via HPLC analyses. (n=5).
as §1
NSC682769 increases survival of a glioma GEMM and penetrates the blood-brain barrier. NSC682769 was evaluated in double transgenic GFAP-EGFRvIII; GFAP-Cre/Rictor^loxP/loxP mice which overexpress both the mutant constitutively active EGFRvIII allele and the mTORC2 scaffolding component Rictor. […] To assess therapeutic activity, the effect of twice-weekly 5 or 20 mg/kg NSC682769 treatments was measured on survival.

T1 sequence (P46937 50-171): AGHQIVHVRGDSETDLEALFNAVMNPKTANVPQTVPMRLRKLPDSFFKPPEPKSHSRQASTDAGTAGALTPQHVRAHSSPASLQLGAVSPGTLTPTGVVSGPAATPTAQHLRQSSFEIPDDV

COc1ccc(-c2cc(-c3ccccc3)nc3c2CC(=O)Nc2ccccc2-3)cc1OC [NSC682769]
Inhibition of His-tagged YAP1 and GST-TEAD1 association [1]: marked inhibition | Tumor growth delay ([2]; 5 mg/kg/d): 11 days | Tumor growth inhibition at end of dosing period ([2]; 5 mg/kg/d): 66% | Relative expression level of YAP in harvested tumors ([2]; 5 mg/kg, 20 mg/kg versus vehicle): reduced | Tumor growth delay ([2]; 20 mg/kg/d): 16 days | Tumor growth inhibition at end of dosing period ([2]; 20 mg/kg/d): 83% | Overall survival relative to vehicle ([2]; 5 and 20 mg/kg/d): markedly extended | Harvested tumor weights ([2]; both dosing regimens versus vehicle): significant reduction | Apoptosis by TUNEL staining of tumors ([2]; both dosing regimens, day 12): enhancement of apoptotic death | Ki-67 staining of harvested tumors ([2]; day 12 after start of treatment): reduction | Expression of CTGF and Cyr61 in harvested xenografts ([2]; treated groups versus vehicle): reduced | Mice surviving to 20 weeks ([3]; 5 mg/kg twice weekly): 60% | Mice surviving at 20 weeks ([3]; 20 mg/kg twice weekly): more than 75%
